Experimental data from ChEMBL document CHEMBL5365483, “Structure-Based Drug Design of Novel Triaminotriazine Derivatives as Orally Bioavailable IDH2R140Q Inhibitors with High Selectivity and Reduced hERG Inhibitory Activity for the Treatment of Acute Myeloid Leukemia” (J Med Chem, 2023).

Tests used:
in vitro [1] = settings: human, liver microsomes
in vitro [2] = settings: human, liver microsomes; remark: listed apart in the source
in vitro [3] = settings: mouse, liver microsomes
in vitro [4] = settings: mouse, liver microsomes; remark: listed apart in the source
in vivo [5] = settings: BALB/c, mouse, iv, 5 mg/kg
in vivo [6] = settings: BALB/c, mouse, iv, 5 mg/kg; remark: listed apart in the source
in vivo [7] = settings: BALB/c, mouse, iv, 5 mg/kg; remark: listed apart in the source
in vivo [8] = settings: BALB/c, mouse, iv, 5 mg/kg; remark: listed apart in the source
in vivo [9] = settings: BALB/c, mouse, iv, 5 mg/kg; remark: listed apart in the source
in vivo [10] = settings: BALB/c, mouse, po, 25 mg/kg
in vivo [11] = settings: BALB/c, mouse, po, 25 mg/kg; remark: listed apart in the source
in vivo [12] = settings: BALB/c, mouse, po, 25 mg/kg; remark: listed apart in the source
in vivo [13] = settings: BALB/c, mouse, po, 25 mg/kg; remark: listed apart in the source
in vivo [14] = settings: BALB/c, mouse, po, 25 mg/kg; remark: listed apart in the source

| Structure (SMILES) | half-life at 1 h, 1 µM (in vitro [1]) [h] | CLint scaled at 1 h, 1 µM (in vitro [2]) [mL/min/kg] | half-life at 1 h, 1 µM (in vitro [3]) [h] | CLint scaled at 1 h, 1 µM (in vitro [4]) [mL/min/kg] | half-life at 24 h (in vivo [5]) [h] | Cmax at 24 h (in vivo [6]) [ng/mL] | AUC(0-inf) at 24 h (in vivo [7]) [ng·h/mL] | MRT at 24 h (in vivo [8]) [h] | clearance at 24 h (in vivo [9]) [mL/min/kg] | half-life at 72 h (in vivo [10]) [h] | Cmax at 72 h (in vivo [11]) [ng/mL] | AUC(0-inf) at 72 h (in vivo [12]) [ng·h/mL] | MRT at 72 h (in vivo [13]) [h] | bioavailability at 72 h (in vivo [14]) [%] |
| --- | --- | --- | --- | --- | --- | --- | --- | --- | --- | --- | --- | --- | --- | --- |
| O=C(O)Cc1ccccc1Nc1c(Cl)cccc1Cl [DICLOFENAC] | 0.0883 | 302 | 0.402 | 226 |  |  |  |  |  |  |  |  |  |  |
| CC(C)(O)CNc1nc(Nc2ccnc(C(F)(F)F)c2)nc(-c2cccc(C(F)(F)F)n2)n1 [ENASIDENIB] |  |  |  |  | 2.71 | 2840 | 14000 | 4.9 | 5.99 | 6.98 | 6390 | 87600 | 7.45 | 125 |
| CCOc1ccc(NC(C)=O)cc1 [PHENACETIN] | 1.13 | 23.6 | 0.0567 | 1590 |  |  |  |  |  |  |  |  |  |  |
